Laboratory results reported in patent publication US20140322761A1, “METHOD OF PREPARING SAMPLE FOR NUCLEIC ACID AMPLIFICATION REACTION, NUCLEIC ACID AMPLIFICATION METHOD, AND REAGENT AND MICROCHIP FOR SOLID PHASE NUCLEIC ACID AMPLIFICATION REACTION” (Sony Corporation, priority 2013, published 2014).

Key:
[1] = system: nucleic acid amplification reaction (genome of Bifidobacterium bifidum as template); assay: LAMP reaction with SDS and HPβCD, bacterial genome as template (Example 6); type: biochemical
Protocol: In Example 6, nucleic acid amplification reaction was performed using the LAMP method using a genome of Bifidobacterium bifidum as a template nucleic acid. In addition, a sample for nucleic acid amplification reaction, a primer, and a quenching probe used for the nucleic acid amplification reaction were the same as those in Example 5. HPβCD was prepared such that a final concentration of HPβCD in a nucleic acid amplification reaction solution becomes 2.5%. Furthermore, SDS was added thereto such that the SDS concentrations become 0%, 0.05%, 0.1%, 0.2%, 0.3%, 0.4%, 0.5%, and 1.0% to be set as Test Examples 1 to 8 respectively. In addition, HPβCD was prepared such that a final concentration of HPβCD in a nucleic acid amplification reaction solution becomes 5.0%. Furthermore, SDS was added thereto such that the SDS concentrations become 0%, 0.05%, 0.1%, 0.2%, 0.3%, 0.4%, 0.5%, and 1.0% to be set as Test Examples 9 to 16 respectively. In addition, nucleic acid amplification reaction solutions prepared such that the HPβCD concentration becomes 0% and the SDS concentrations become 0%, 0.01%, and 0.1% to be set as Comparative Examples 1 to 3.

[2] = system: RNase A contained in plasma; assay: Activity of RNase A contained in diluted bovine plasma, RNase Alert QC test Kit (Example 4); type: biochemical; conditions: 37° C., 60 minutes
Protocol: In Example 4, bovine plasma was used as an organism derived sample. The bovine plasma was used after being diluted 10 times or 20 times in advance. Similarly to Example 3, RNase Alert QC test Kit (Ambion) was used for measuring the activity of the RNase A. RNaseAlert substrate and SDS were added to the 10 times diluted bovine plasma such that final concentrations of the SDS become 0.05%, 0.1%, 0.2%, 0.3%, 0.4%, and 0.5% respectively to be set as Test Examples 1 to 6. In addition, RNaseAlert substrate and SDS were added to the 20 times diluted bovine plasma such that final concentrations of the SDS become 0.05%, 0.1%, 0.2%, 0.3%, 0.4%, and 0.5% respectively to be set as Test Examples 7 to 12. In addition, 10 times diluted bovine plasma to which SDS is not added was set as Comparative Example 1 and 20 times diluted bovine plasma to which SDS is not added was set as Comparative Example 2. Test Examples 1 to 12 and Comparative Examples 1 and 2 were kept warm for 60 minutes at a temperature of 37° C. and the activity of the RNase A was measured during the time period using the same method as in Example 3.

[3] = system: Bifidobacterium bifidum; assay: Nucleic acid extraction from bacteria by heat treatment with SDS, followed by LAMP (Example 5); conditions: HPβCD 5% (w/v), LAMP 63° C.
Protocol: In Example 5, Bifidobacterium bifidum from which it is comparatively difficult to extract the nucleic acid was used as bacteria. The Bifidobacterium bifidum (NBRC number: 100015) was obtained from Biological Resource Center (NBRC) of National In statute of Technology and Evaluation (NITE). In addition, the nucleic acid amplification reaction of a genome of Bifidobacterium bifidum was performed using the LAMP method and an LAMP reaction reagent (Eiken Chemical Co., Ltd, Loopamp® DNA Amplification reagent Kit) was used as a sample for the nucleic acid amplification reaction.
A quenching probe shown in Table 3 was used for detecting an amplification nucleic acid chain. In Example 5, excitation light and luminescence of light derived from a fluorescent material FAM bonded with the quenching probe was measured to be 490 nm and 520 nm respectively, using Chromo4 (Bio-rad).
A cell suspension in which the Bifidobacterium bifidum is prepared to be 100 copies/ml. In Example 5, as Test Examples 3 to 5, SDS was added to the cell suspension at the time of heat treatment such that concentrations of SDS become 0.01%, 0.1%, and 1%, respectively (refer to Table 4). In addition, as Test Examples 1 and 2 and Comparative Example 1, cell suspensions to which SDS was not added was prepared (refer to Table 4). The heat treatment was performed for 3 minutes at a temperature of 90° C. for Test Examples 1 and 3 to 5 before starting the nucleic acid amplification reaction. In addition, sonication was performed for Test Example 2 before starting the nucleic acid amplification reaction. After the heating process or the sonication, a LAMP reaction reagent and a primer and quenching probe of Table 3 were added to Test Examples 1 to 5. Furthermore, hydroxyprophyl-β-cyclodextrin (Tokyo Chemical Industry Co., Ltd.) was added to Test Examples 1 to 5 such that a final concentration of the hydroxyprophyl-β-cyclodextrin becomes 5% (w/v). A sample for nucleic acid amplification reaction, a primer, a quenching probe, and HPβCD were added to Comparative Example 1 as well. […]

[4] = biological target: T1, RNase A (Bos taurus, UniProt P61823); assay: RNase A activity, RNase Alert QC test Kit (Example 3); type: biochemical; conditions: RNase A 0.003 U/mL, 37° C., 60 minutes, compared to Comparative Example 2 without SDS
T1 sequence (P61823 27-150): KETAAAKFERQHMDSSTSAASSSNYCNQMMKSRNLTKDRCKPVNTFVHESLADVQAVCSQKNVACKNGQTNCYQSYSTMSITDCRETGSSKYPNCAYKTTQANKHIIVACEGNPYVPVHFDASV
Protocol: RNase Alert QC test Kit (Ambion) was used for measuring the activity of the RNase A. The RNase A was added to the solution containing RNaseAlert substrate with a final concentration of 0.003 U/mL. The SDS was added to the RNase A solution with a final concentration of 0.1% or 1.0% each to be set as Test Example 1 and Test Example 2. […] Test Examples 1 and 2 and Comparative Examples 1 and 2 were kept warm for 60 minutes at a temperature of 37° C. A fluorescent material (FAM) is bonded with a quencher in the RNaseAlert substrate. The fluorescent material emits when the fluorescent material is separated from the quencher using the RNase A. Excitation light and luminescence of the fluorescence was measured to be 490 nm and 520 nm respectively, using Chromo4 (Bio-rad).

| Compound | HPβCD concentration relative to the SDS concentration to suppress the inhibition of the LAMP reaction due to the SDS ([1]; in the nucleic acid amplification reaction solution) | SDS concentration at which amplification of the nucleic acid was confirmed ([1]; HPβCD not added) | amplification of the nucleic acid ([1]; HPβCD not added, SDS concentration 0.1%) | SDS concentration with which the activity of the RNase A was suppressed ([2]; bovine plasma diluted 10 times (Test Examples 5 and 6)) | SDS concentration with which the activity of the RNase A was suppressed ([2]; bovine plasma diluted 20 times (Test Examples 9 to 12)) | Tt value ([3]; SDS 0.01% at heat treatment, 3 minutes at 90° C. (Test Example 3)) | Tt value ([3]; SDS 0.1% at heat treatment, 3 minutes at 90° C. (Test Example 4)) | amplification of the nucleic acid ([3]; SDS 1% at heat treatment, 3 minutes at 90° C. (Test Example 5)) | activity of the RNase A ([4]; SDS 0.1% (Test Example 1)) | activity of the RNase A ([4]; SDS 1.0% (Test Example 2)) |
| --- | --- | --- | --- | --- | --- | --- | --- | --- | --- | --- |
| hydroxyprophyl-β-cyclodextrin [HPβCD] | ≥ 8 times |  |  |  |  |  |  |  |  |  |
| CCCCCCCCCCCCOS(=O)(=O)[O-].[Na+] [SDS, sodium dodecyl sulfate] |  | ≤ 0.01% | No amplification of the nucleic acid was confirmed | ≥ 0.4% | ≥ 0.2% | 17.5 min | 14.2 min | no amplification of the nucleic acid | suppressed | suppressed |
